The conditions of the series: [M+H]+; instrument: TW; Major Mix IMS/Tof Calibration Kit (Waters).

This is an account of results in the C3SDB collision cross section collection.

Take `CN(C)CCOC(C)(c1ccccc1)c1ccccn1` (centres undefined) [Doxylamine]: the “collision cross section (N2)” value is reported as 161.9 Å².

Consider `COC(=O)[C@@H]1CC2=CC(=O)CC[C@]2(C)[C@@]23O[C@@H]2C[C@@]2(C)[C@@H](CC[C@@]24CCC(=O)O4)[C@H]13` [Eplerenone], for which the “collision cross section (N2)” value turned out to be 197.6 Å².

For `CCNC(C)C(=O)c1ccccc1` (centres undefined) [Ethcathinone], the “collision cross section (N2)” value was 139.2 Å².

For the compound `Fc1ccc(C(c2ccc(F)cc2)N2CCN(C/C=C/c3ccccc3)CC2)cc1` [Flunarizine], the “collision cross section (N2)” value is 211.5 Å².

On to `CN1C(=O)CN=C(c2ccccc2F)c2cc(N)ccc21` [Flunitrazepam-M 7-amino], for which the “collision cross section (N2)” value came out at 163.1 Å².

For `CN1C(=O)CN=C(c2ccccc2F)c2cc([N+](=O)[O-])ccc21` [Flunitrazepam], the “collision cross section (N2)” value is given as 168.6 Å².

Regarding `FC(F)(F)c1ccc2c(c1)C(=CCCN1CCNCC1)c1ccccc1S2` [Flupentixol-M N-desalkyl], the “collision cross section (N2)” value was 186 Å².

Take `O=S1c2ccccc2/C(=C\CCN2CCN(CCO)CC2)c2cc(C(F)(F)F)ccc21` (centres undefined) [Flupentixol-M sulphoxide]: the “collision cross section (N2)” value amounted to 196.8 Å².

With `OCCN1CCN(CC/C=C2\c3ccccc3Sc3ccc(C(F)(F)F)cc32)CC1` [Flupentixol], the “collision cross section (N2)” value stood at 199.4 Å².

Regarding `CCN(CC)CCN1C(=O)CN=C(c2ccccc2F)c2cc(Cl)ccc21` [Flurazepam], the “collision cross section (N2)” value amounted to 185.3 Å².

In the case of `COc1ccc(Cl)cc1C(=O)NCCc1ccc(S(=O)(=O)NC(=O)NC2CCCCC2)cc1` [Glyburide], the “collision cross section (N2)” value is reported as 204.7 Å².

Turning to `CN1CC[C@]23c4c5ccc(O)c4O[C@H]2C(=O)CC[C@H]3[C@H]1C5` [Hydromorphone], the “collision cross section (N2)” value stood at 163.9 Å².

For the compound `CCN(CCO)CCCC(C)Nc1ccnc2cc(Cl)ccc12` (centres undefined) [Hydroxychloroquine], the “collision cross section (N2)” value amounted to 180.2 Å².

Turning to `CNCCCN1c2ccccc2CCc2ccccc21` [Imipramine-M Nor], the “collision cross section (N2)” value was determined as 163.3 Å².

Regarding `Cc1cc(C(=O)NNCc2ccccc2)no1` [Isocarboxazid], the “collision cross section (N2)” value came out at 152.1 Å².

Turning to `CCC(=O)C1(c2cccc(O)c2)CCN(C)CC1` [Ketobemidone], the “collision cross section (N2)” value was determined as 159.7 Å².

Regarding `CC(CCc1ccccc1)NCC(O)c1ccc(O)c(C(N)=O)c1` (centres undefined) [Labetalol], the “collision cross section (N2)” value is recorded as 178.1 Å².

On to `Nc1nnc(-c2cccc(Cl)c2Cl)c(N)n1` [Lamotrigine], for which the “collision cross section (N2)” value amounted to 151.2 Å².

Regarding `COC(=O)C1=C(C)NC(C)=C(C(=O)OC(C)(C)CN(C)CCC(c2ccccc2)c2ccccc2)C1c1cccc([N+](=O)[O-])c1` (centres undefined) [Lercanidipine], the “collision cross section (N2)” value came out at 249.8 Å².

Turning to `CNC[C@@H](C)CN1c2ccccc2S(=O)c2ccc(OC)cc21` (some centres undefined) [Levomepromazine-M N-desmethyl sulfoxide], the “collision cross section (N2)” value was 172.9 Å².

Regarding `CN1CC[C@]23CCCC[C@H]2[C@H]1Cc1ccc(O)cc13` [Levorphanol], the “collision cross section (N2)” value amounted to 161.7 Å².

As to `NC(=O)C(CCN1CCC(O)(c2ccc(Cl)cc2)CC1)(c1ccccc1)c1ccccc1` [Loperamid-M didesmethyl], the “collision cross section (N2)” value came to 211.9 Å².

On to `CN1CCN(C2=Nc3ccccc3Oc3ccc(Cl)cc32)CC1` [Loxapine], for which the “collision cross section (N2)” value stood at 175.7 Å².

Turning to `CNCCCC1(C2=CC=CC=C32)CC[C@H]3C4=CC=CC=C14` [Maprotiline], the “collision cross section (N2)” value came to 164.2 Å².

On to `COc1ccc2[nH]cc(CCNC(C)=O)c2c1` [Melatonin], for which the “collision cross section (N2)” value was 153.4 Å².

On to `CC1CCN(CCCC(=O)c2ccc(F)cc2)CC1` [Melperone], for which the “collision cross section (N2)” value was determined as 163.5 Å².

As to `C[C@]12C[C@@H]3C[C@](C)(C1)C[C@@](N)(C3)C2` [Memantine], the “collision cross section (N2)” value is reported as 146.6 Å².

Take `CNC(C)C(=O)c1ccc(C)cc1` (centres undefined) [Mephedrone]: the “collision cross section (N2)” value worked out at 143.1 Å².

Regarding `Cc1cccc(C)c1NC(=O)C1CCCCN1C` (centres undefined) [Mepivacaine], the “collision cross section (N2)” value is listed as 159.1 Å².

With `CN(Cc1cnc2nc(N)nc(N)c2n1)c1ccc(C(=O)N[C@@H](CCC(=O)O)C(=O)O)cc1` [Methotrexate], the “collision cross section (N2)” value came out at 196.2 Å².

Regarding `CNC(C)C(=O)c1ccc2c(c1)OCO2` (centres undefined) [Methylone], the “collision cross section (N2)” value is 147.3 Å².

`C[C@]12CCC(=O)C=C1CC[C@@H]1[C@@H]2CC[C@@]2(C)[C@H]1CC[C@]2(C)O` [Methyltestosterone]: the “collision cross section (N2)” value was 176 Å².

Consider `COCCc1ccc(OCC(O)CNC(C)C)cc1` (centres undefined) [Metoprolol], for which the “collision cross section (N2)” value is given as 172.7 Å².

`O=C(NCCN1CCOCC1)c1ccc(Cl)cc1` [Moclobemide]: the “collision cross section (N2)” value came to 162.5 Å².

For the compound `CC(C)(O)c1ccccc1CC[C@@H](SCC1(CC(=O)O)CC1)c1cccc(/C=C/c2ccc3ccc(Cl)cc3n2)c1` [Montelukast], the “collision cross section (N2)” value was 243 Å².

Consider `CCN(CC)[C@@H](C)[C@H](O)c1ccccc1` [N-diethylnorephedrine], for which the “collision cross section (N2)” value was found to be 144.6 Å².

`CC(C)(C)NCC(O)COc1cccc2c1C[C@H](O)[C@H](O)C2` (some centres undefined) [Nadolol]: the “collision cross section (N2)” value is on record as 172 Å².

On to `O=C1CC[C@@]2(O)[C@H]3Cc4ccc(O)c5c4[C@@]2(CCN3CC2CC2)[C@H]1O5` [Naltrexone], for which the “collision cross section (N2)” value was determined as 176.5 Å².

For `c1ccc2c(CC3=NCCN3)cccc2c1` [Naphazoline], the “collision cross section (N2)” value is listed as 149.6 Å².

`CNS(=O)(=O)CCc1ccc2[nH]cc(C3CCN(C)CC3)c2c1` [Naratriptan]: the “collision cross section (N2)” value is 174.3 Å².

`COC(=O)C1=C(C)NC(C)=C(C(=O)OCCN(C)Cc2ccccc2)C1c1cccc([N+](=O)[O-])c1` (centres undefined) [Nicardipine]: the “collision cross section (N2)” value amounted to 212.1 Å².

In the case of `O=C1CN=C(c2ccccc2)c2cc([N+](=O)[O-])ccc2N1` [Nitrazepam], the “collision cross section (N2)” value is listed as 163.6 Å².

On to `COc1ccc2c3c1O[C@H]1[C@@H](O)C=C[C@H]4[C@@H](C2)NCC[C@@]341` [Norcodeine], for which the “collision cross section (N2)” value is listed as 166.1 Å².

As for `Cc1nccn1CC1CCc2c(c3ccccc3n2C)C1=O` (centres undefined) [Ondansetron], the “collision cross section (N2)” value was determined as 171.7 Å².

With `C=CCOc1ccccc1OCC(O)CNC(C)C` (centres undefined) [Oxprenolol], the “collision cross section (N2)” value amounted to 161.7 Å².

For `CN1CC[C@]23c4c5ccc(O)c4O[C@H]2C(=O)CC[C@@]3(O)[C@H]1C5` [Oxymorphone], the “collision cross section (N2)” value is 164.6 Å².

On to `CC(=O)Nc1ccc(O)cc1` [Paracetamol], for which the “collision cross section (N2)” value is given as 132.2 Å².

Regarding `CCCN1C[C@H](CSC)C[C@@H]2c3cccc4[nH]cc(c34)C[C@H]21` [Pergolide], the “collision cross section (N2)” value was determined as 177.9 Å².

For `CCOC(=O)C1(c2ccccc2)CCN(C)CC1` [Pethidine], the “collision cross section (N2)” value was found to be 158.5 Å².

Take `CC(C)NCC(O)COc1cccc2[nH]ccc12` (centres undefined) [Pindolol]: the “collision cross section (N2)” value came to 159.1 Å².

Consider `NC(=O)C1(N2CCCCC2)CCN(CCCC(=O)c2ccc(F)cc2)CC1` [Pipamperone], for which the “collision cross section (N2)” value was determined as 194.1 Å².

For `CN1CCC(=C2c3ccccc3CCc3sccc32)CC1` [Pizotifen], the “collision cross section (N2)” value is given as 175.4 Å².

For the compound `CC(CN1c2ccccc2Sc2ccccc21)N(C)C` (centres undefined) [Promethazine], the “collision cross section (N2)” value is given as 163.7 Å².

In the case of `CC(C)NCC(O)COc1cccc2ccccc12` (centres undefined) [Propranolol], the “collision cross section (N2)” value was found to be 162.7 Å².

As for `Fc1ccccc1C1=NCC(=S)N(CC(F)(F)F)c2ccc(Cl)cc21` [Quazepam], the “collision cross section (N2)” value was 174.9 Å².

On to `OCCOCCN1CCN(C2=Nc3ccccc3Sc3ccccc32)CC1` [Quetiapine], for which the “collision cross section (N2)” value was 192.9 Å².

For the compound `CCOc1ccccc1O[C@H](c1ccccc1)[C@H]1CNCCO1` [Reboxetine], the “collision cross section (N2)” value is 174 Å².

Take `Cc1nc2n(c(=O)c1CCN1CCC(c3noc4cc(F)ccc34)CC1)CCCC2O` (centres undefined) [Risperidone-M 9-hydroxy]: the “collision cross section (N2)” value amounted to 209.9 Å².

For `O=C(O)C(c1ccccc1)C1CCCCN1` (centres undefined) [Ritalinic acid], the “collision cross section (N2)” value was determined as 150 Å².

On to `CN(C)CCc1c[nH]c2ccc(Cn3cncn3)cc12` [Rizatriptan], for which the “collision cross section (N2)” value stood at 160.3 Å².

Turning to `CCCN(CCC)CCc1cccc2c1CC(=O)N2` [Ropinirole], the “collision cross section (N2)” value was determined as 163.8 Å².

For the compound `NC(=O)c1cn(Cc2c(F)cccc2F)nn1` [Rufinamide], the “collision cross section (N2)” value was 148.6 Å².

Take `O=C1NCCN1CCN1CCC(c2cn(-c3ccc(F)cc3)c3ccc(Cl)cc23)CC1` [Sertindol]: the “collision cross section (N2)” value came to 215.9 Å².

Regarding `CC(C)CC(N(C)C)C1(c2ccc(Cl)cc2)CCC1` (centres undefined) [Sibutramine], the “collision cross section (N2)” value is given as 168 Å².

`CCCc1nn(C)c2c(=O)[nH]c(-c3cc(S(=O)(=O)N4CCN(C)CC4)ccc3OCC)nc12` [Sildenafil]: the “collision cross section (N2)” value is reported as 212.7 Å².

Regarding `COc1ncnc(NS(=O)(=O)c2ccc(N)cc2)c1OC` [Sulfadoxine], the “collision cross section (N2)” value was found to be 165.3 Å².

For the compound `Nc1ccc(S(=O)(=O)Nc2ccccn2)cc1` [Sulfapyridine], the “collision cross section (N2)” value is recorded as 150.8 Å².

Turning to `CN1CC(=O)N2[C@H](c3ccc4c(c3)OCO4)c3[nH]c4ccccc4c3C[C@@H]2C1=O` [Tadalafil], the “collision cross section (N2)” value stood at 189.4 Å².

Consider `CC/C(=C(\c1ccccc1)c1ccc(OCCN(C)C)cc1)c1ccccc1` [Tamoxifen], for which the “collision cross section (N2)” value was 197.1 Å².
